Measurements: patent US4855415A, “Glucosylmoranoline derivatives” (Nippon Shinyaku Co., Ltd., priority 1986, dated 1989)
Values after ≈ are worked out from the molar mass of the structure shown.

How the values were obtained:
[1] = tested on: maltase; assay: alpha-glucosidase inhibiting action in vitro: maltase; type: biochemical, rabbit; conditions: 50 mM maltose, pH 7.0, 37° C., 30 minutes; for inhibitory rate, Maltase: ** inhibitory rate at 100 μg/ml; for IC50, Maltase: crudely purified enzyme from rabbit small intestine mucosa, average of three measurements (* four)
Experimental: (§1) MEASUREMENT OF ALPHA-GLUCOSIDASE INHIBITING ACTION IN VITRO
(§2) The activity of the test compounds in inhibiting sucrase and maltase in vitro using a crudely purified enzyme preparation (purified in accordance with a method of Takesue, 1969) obtained from rabbit small intestine mocosa was carried out as follows.
(§3) To 40 microliters of enzyme solution diluted with 0.4M phosphate buffer (pH 7.0) are added 20 microliters of a solution of a test compound in the same buffer and 140 microliters of a solution of a substrate (50 mM sucrose or 50 mM maltose) in the same buffer and the mixture is allowed to react at 37° C. for 30 minutes. The reaction is then stopped by adding 400 microliters of 3N barium hydroxide and 400 microliters of 5% zinc sulfate solution. The amount of the enzyme that is reacted is determined as the amount of glucose contained in 200 microliters of the supernatant liquid of the reaction solution by adding 3 ml of glucoseoxidase reagent (Bioehringer-Mannheim) followed by reacting at ambient temperature for 30 minutes and measuring the absorbance at 420 nm. The concentration of the compound that provides 50% inhibition (IC50) of sucrase and maltase is calculated by expressing the values (as measured by the above method with five different concentrations) as an inhibitory rate (%) to the control.

[2] = tested on: mice; assay: oral toxicity in mice; type: in vivo; conditions: orally, 5 g/kg
Experimental: The toxicity of the compounds (I) was tested by giving the compound of Example 1 orally to mice (5 g/kg) but there were no deaths.

[3] = tested on: increase in blood glucose level; assay: inhibitory action against increase in blood glucose level in rats (oral sucrose load); type: in vivo, SD-Strain rats; conditions: per os, 1 ml/100 g of sucrose solution (2 g/10 ml) containing 30 mg test compound, 180 minutes after administration
Experimental: INHIBITORY ACTION AGAINST INCREASE IN BLOOD GLUCOSE LEVEL IN RATS
SD-Strain rats (5 weeks age; male; each group comprising 4 to 5 rats) were fasted overnight and then given 1 ml/100 g body weight of aqueous solution of sucrose (2 g/10 ml) containing 30 mg test compound per os through a stomach tube.
Blood was taken from the tail vein immediately before the administration and at 30, 60, 90, 120 and 180 minutes thereafter and blood glucose levels were measured by a glucose oxidase method (using the assay kit prepared by Boehringer Mannheim).
Based on the values obtained above, a graph was drawn using time as the abscissa and blood glucose level as the ordinate and the area (ΔAUC)under the time-blood glucose increase curve was determined.
A group of rats receiving only water and another group receiving only sucrose were designated as a basal group (group B) and a control group (group C), respectively. Then the inhibitory rate for an increase in ΔAUC 180 minutes after administration of the test compounds (group T) was calculated from the following expression. [formula]

[4] = molecular target: T1, sucrase (Oryctolagus cuniculus, UniProt P07768); assay: alpha-glucosidase inhibiting action in vitro: sucrase; type: biochemical, rabbit; conditions: 50 mM sucrose, pH 7.0, 37° C., 30 minutes; for IC50: IC50, Sucrase, crudely purified enzyme from rabbit small intestine mucosa, average of three measurements (* four)
T1 construct: from tissue; host or cells: rabbit small intestine mucosa, crudely purified by a method of Takesue, 1969
T1 sequence (P07768 1008-1827 limits assumed): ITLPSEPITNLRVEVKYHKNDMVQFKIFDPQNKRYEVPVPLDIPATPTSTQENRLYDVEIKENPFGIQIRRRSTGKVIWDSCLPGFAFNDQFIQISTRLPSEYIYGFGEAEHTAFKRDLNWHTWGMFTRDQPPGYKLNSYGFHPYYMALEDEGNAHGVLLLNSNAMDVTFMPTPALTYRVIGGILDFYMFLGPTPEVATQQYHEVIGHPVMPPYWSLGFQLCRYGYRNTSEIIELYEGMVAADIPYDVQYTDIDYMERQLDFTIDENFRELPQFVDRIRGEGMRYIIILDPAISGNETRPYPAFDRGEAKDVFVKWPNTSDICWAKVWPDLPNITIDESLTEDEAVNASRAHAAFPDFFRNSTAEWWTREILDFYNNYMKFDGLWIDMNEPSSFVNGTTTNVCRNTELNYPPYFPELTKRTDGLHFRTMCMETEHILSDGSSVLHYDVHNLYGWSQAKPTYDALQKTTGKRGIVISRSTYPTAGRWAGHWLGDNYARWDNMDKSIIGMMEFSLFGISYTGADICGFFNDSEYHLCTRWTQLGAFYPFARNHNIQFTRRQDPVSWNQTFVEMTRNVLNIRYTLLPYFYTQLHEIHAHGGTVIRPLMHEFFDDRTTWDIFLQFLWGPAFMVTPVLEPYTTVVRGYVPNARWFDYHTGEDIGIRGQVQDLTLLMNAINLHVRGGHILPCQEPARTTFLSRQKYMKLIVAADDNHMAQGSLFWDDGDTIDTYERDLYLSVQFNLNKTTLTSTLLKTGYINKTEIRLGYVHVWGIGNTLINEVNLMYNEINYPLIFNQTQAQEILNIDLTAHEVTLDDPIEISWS
T1 sequence (P07768 2-1007 partner limits assumed): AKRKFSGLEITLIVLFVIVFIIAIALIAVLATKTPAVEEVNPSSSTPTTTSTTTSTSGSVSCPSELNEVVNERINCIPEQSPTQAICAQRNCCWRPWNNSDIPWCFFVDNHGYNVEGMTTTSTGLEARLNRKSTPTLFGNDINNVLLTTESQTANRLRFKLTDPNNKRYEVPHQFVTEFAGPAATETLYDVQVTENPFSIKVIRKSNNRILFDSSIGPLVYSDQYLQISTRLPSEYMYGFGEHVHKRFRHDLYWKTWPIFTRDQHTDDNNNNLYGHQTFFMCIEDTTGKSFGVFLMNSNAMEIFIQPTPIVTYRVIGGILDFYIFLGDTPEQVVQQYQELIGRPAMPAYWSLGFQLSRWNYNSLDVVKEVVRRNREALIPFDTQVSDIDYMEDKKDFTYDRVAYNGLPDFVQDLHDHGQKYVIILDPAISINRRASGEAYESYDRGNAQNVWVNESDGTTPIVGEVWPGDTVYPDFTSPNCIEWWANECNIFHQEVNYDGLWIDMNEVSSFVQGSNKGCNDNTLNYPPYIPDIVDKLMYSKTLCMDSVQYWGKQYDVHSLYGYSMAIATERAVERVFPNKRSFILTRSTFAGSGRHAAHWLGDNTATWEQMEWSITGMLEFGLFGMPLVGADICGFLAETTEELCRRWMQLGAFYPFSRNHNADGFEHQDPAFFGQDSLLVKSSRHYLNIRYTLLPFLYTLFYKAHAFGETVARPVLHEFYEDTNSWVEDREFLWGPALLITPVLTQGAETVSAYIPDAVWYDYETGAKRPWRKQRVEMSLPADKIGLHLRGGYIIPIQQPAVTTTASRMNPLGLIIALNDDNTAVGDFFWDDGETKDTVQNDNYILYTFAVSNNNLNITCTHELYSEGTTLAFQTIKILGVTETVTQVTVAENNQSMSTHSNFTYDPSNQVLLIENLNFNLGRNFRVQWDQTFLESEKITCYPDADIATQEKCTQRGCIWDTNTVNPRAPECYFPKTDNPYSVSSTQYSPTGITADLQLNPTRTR
Experimental: as §1, §2, §3

Row | inhibition at 100 µg/mL ([4]; ** inhibitory rate at 100 μg/ml) | Compound | inhibitory rate, Maltase [1] | deaths [2] | Inhibitory Rate (%) for increase in ΔAUC of blood glucose [3] | IC50 [4] | IC50, Maltase [1]
1 |  | Cc1ccc(CN2C[C@H](O)[C@@H](O)[C@H](O[C@H]3O[C@H](CO)[C@@H](O)[C@H](O)[C@H]3O)[C@H]2CO)cc1 [Example 1, 4-O-alpha-D-Glucopyranosyl-N-(p-methylbenzyl)-moranoline] | 23.5% | no deaths | 68.6% | 36.1 µM | 
2 |  | CC(C)=CCN1C[C@H](O)[C@@H](O)[C@H](O[C@H]2O[C@H](CO)[C@@H](O)[C@H](O)[C@H]2O)[C@H]1CO [Example 3, 4-O-alpha-D-Glucopyranosyl-N-(3-methylcrotyl)moranoline p-toluensulfonate] |  |  | 73.2% | 43.7 µM | 248.9 µg/mL (≈ 633 µM)
3 |  | OC[C@@H]1[C@@H](O[C@H]2O[C@H](CO)[C@@H](O)[C@H](O)[C@H]2O)[C@H](O)[C@@H](O)CN1Cc1ccc(Br)cc1 [Example 4, 4-O-alpha-D-Glucopyranosyl-N-(p-bromobenzyl)moranoline] |  |  |  | 20.2 µM | 34.2 µg/mL (≈ 69.2 µM)
4 |  | CCCCCCN1C[C@H](O)[C@@H](O)[C@H](O[C@H]2O[C@H](CO)[C@@H](O)[C@H](O)[C@H]2O)[C@H]1CO [Example 5, 4-O-alpha-D-Glucopyranosyl-N-hexylmoranoline p-toluenesulfonate] |  |  | 94.8% |  | 
5 |  | OC[C@@H]1[C@@H](O[C@H]2O[C@H](CO)[C@@H](O)[C@H](O)[C@H]2O)[C@H](O)[C@@H](O)CN1CCc1ccccc1 [Example 6, 4-O-alpha-D-Glucopyranosyl-N-(beta-phenylethyl)moranoline] |  |  | 69.9% | 71.7 µM | 192.5 µg/mL (≈ 448 µM)
6 |  | COc1ccc(CN2C[C@H](O)[C@@H](O)[C@H](O[C@H]3O[C@H](CO)[C@@H](O)[C@H](O)[C@H]3O)[C@H]2CO)cc1 [Example 8, 4-O-alpha-D-Glucopyranosyl-N-(p-methoxybenzyl)moranoline] |  |  | 54.8% | 55.7 µM | 173.0 µg/mL (≈ 388 µM)
7 |  | OC[C@@H]1[C@@H](O[C@H]2O[C@H](CO)[C@@H](O)[C@H](O)[C@H]2O)[C@H](O)[C@@H](O)CN1CCOc1ccccc1 [Example 9, 4-O-alpha-D-Glucopyranosyl-N-(beta-phenoxyethyl)moranoline] |  |  | 64.5% | 14.4 µM | 223.6 µg/mL (≈ 502 µM)
8 | 21.9% | O=C(O)c1ccc(CN2C[C@H](O)[C@@H](O)[C@H](O[C@H]3O[C@H](CO)[C@@H](O)[C@H](O)[C@H]3O)[C@H]2CO)cc1 [Example 12, 4-O-alpha-D-Glucopyranosyl-N-(4-carboxybenzyl)moranoline p-toluenesulfonate] | 2.0% |  | 46.6% |  | 
9 |  | C=CCN1C[C@H](O)[C@@H](O)[C@H](O[C@H]2O[C@H](CO)[C@@H](O)[C@H](O)[C@H]2O)[C@H]1CO [Example 13, 4-O-alpha-D-Glucopyranosyl-N-allylmoranoline p-toluenesulfonate] |  |  | 77.1% | 62.7 µM | 262.1 µg/mL (≈ 717 µM)
10 |  | OC[C@@H]1[C@@H](O[C@H]2O[C@H](CO)[C@@H](O)[C@H](O)[C@H]2O)[C@H](O)[C@@H](O)CN1CCCCOc1ccccc1 [Example 14, 4-O-alpha-D-Glucopyranosyl-N-(4-phenoxybutyl)-moranoline] |  |  | 86.9% | 14.4 µM | 168.6 µg/mL (≈ 356 µM)
11 |  | CCCCCCCCCN1C[C@H](O)[C@@H](O)[C@H](O[C@H]2O[C@H](CO)[C@@H](O)[C@H](O)[C@H]2O)[C@H]1CO [Example 17, 4-O-alpha-D-Glucopyranosyl-N-nonylmoranoline hydrate] |  |  | 80.2% | 11.5 µM | 77.9 µg/mL
12 |  | COC(=O)CCCCN1C[C@H](O)[C@@H](O)[C@H](O[C@H]2O[C@H](CO)[C@@H](O)[C@H](O)[C@H]2O)[C@H]1CO [Example 18, 4-O-alpha-D-Glucopyranosyl-N-(4-methoxycarbonylbutyl)moranoline p-toluenesulfonate] |  |  | 47.9% | 45.1 µM | 44.6 µg/mL (≈ 101 µM)
13 |  | OC[C@@H]1[C@@H](O[C@H]2O[C@H](CO)[C@@H](O)[C@H](O)[C@H]2O)[C@H](O)[C@@H](O)CN1CCc1ccccc1 [Example 19, 4-O-alpha-D-Glucopyranosyl-N-phenethylmoranoline p-toluenesulfonate] |  |  | 54.0% |  | 
14 |  | OC[C@@H]1[C@@H](O[C@H]2O[C@H](CO)[C@@H](O)[C@H](O)[C@H]2O)[C@H](O)[C@@H](O)CN1CC=Cc1ccccc1 [Example 20, 4-O-alpha-D-Glucopyranosyl-N-cinnamylmoranoline p-toluenesulfonate] |  |  | 76.8% | 22 µM | 284.9 µg/mL (≈ 645 µM)
15 |  | OC[C@@H]1[C@@H](O[C@H]2O[C@H](CO)[C@@H](O)[C@H](O)[C@H]2O)[C@H](O)[C@@H](O)CN1CC(O)COc1ccccc1 (stereo partly drawn) [Example 22, 4-O-alpha-D-Glucopyranosyl-N-(2-hydroxy-3-phenoxypropyl)moranoline p-toluenesulfonate hydrate] |  |  | 48.4% | 33.9 µM | 40.9 µg/mL
16 |  | Cc1ccc(CN2C[C@H](O)[C@@H](O)[C@H](O[C@H]3O[C@H](CO)[C@@H](O)[C@H](O)[C@H]3O)[C@H]2CO)cc1 [Example 25, 4-O-alpha-D-Glucopyranosyl-N-(p-methylbenzyl)moranoline p-toluenesulfonate] |  |  | 84.4% | 32.6 µM | 69.2 µg/mL (≈ 161 µM)
